pKd: −log10 of the molar value.

The text below walks through data of article PMC2907420 (Journal of pharmaceutical and biomedical analysis, 2010).

Data set [1] deals with T1, glycated HSA (Homo sapiens, UniProt P02768). To be noted: 4°C, comparable glycation conditions; cited from earlier work.
The conditions of data set [2]: depending on storage conditions; cited from earlier work.
The subject of data set [3] is normal HSA. The conditions noted are these: normal HSA columns, 37°C; cited from earlier work.
Data set [4] addresses T2, glycated HSA (gHSA1) (Homo sapiens, UniProt P02768). In words: biochemical.
For data set [5], the target named is T3, glycated HSA (gHSA3) (Homo sapiens, UniProt P02768). Briefly: biochemical.
In data set [6] the target is T4, glycated HSA (gHSA2) (Homo sapiens, UniProt P02768). Briefly: biochemical.
The target in data set [7] is T3, glycated HSA (gHSA3). To be noted: gHSA3 column.
The target of data set [8] is T4, glycated HSA (gHSA2). To be noted: gHSA2 column.
Data set [9] has as its target T1, glycated HSA. To be noted: pH 7.4, 37°C; versus reported Ka of 1.1 × 10^4 M^−1 for normal HSA.
The target in data set [10] is T2, glycated HSA (gHSA1). The conditions noted are these: gHSA1 column.
Where [11] appears, read: binding capacity normalized for protein content.
Setting [12] is: moles of active binding sites, Eqn. 3.

T2 sequence (P02768 25-609): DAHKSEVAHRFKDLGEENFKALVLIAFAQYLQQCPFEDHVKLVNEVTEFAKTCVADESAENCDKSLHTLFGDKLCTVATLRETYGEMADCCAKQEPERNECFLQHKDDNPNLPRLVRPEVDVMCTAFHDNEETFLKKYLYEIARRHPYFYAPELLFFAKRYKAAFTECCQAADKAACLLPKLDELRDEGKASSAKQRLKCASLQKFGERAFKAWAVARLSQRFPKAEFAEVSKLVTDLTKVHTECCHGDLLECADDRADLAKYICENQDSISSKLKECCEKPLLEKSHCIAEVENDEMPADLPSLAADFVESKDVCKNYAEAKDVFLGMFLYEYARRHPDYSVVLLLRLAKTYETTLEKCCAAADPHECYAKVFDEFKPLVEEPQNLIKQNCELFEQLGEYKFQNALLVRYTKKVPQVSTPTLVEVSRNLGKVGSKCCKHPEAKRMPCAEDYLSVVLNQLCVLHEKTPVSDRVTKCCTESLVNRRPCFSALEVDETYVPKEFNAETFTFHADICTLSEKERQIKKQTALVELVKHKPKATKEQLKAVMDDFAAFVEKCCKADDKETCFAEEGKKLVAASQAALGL
T4 sequence (P02768 25-609): as above
T3 sequence (P02768 25-609): as above
T1 sequence (P02768 25-609): as above

In the case of `N[C@@H](Cc1c[nH]c2ccccc12)C(=O)O` [L-Tryptophan, L-tryptophan], the “decrease in affinity, glycated HSA versus HSA” value in data set [1] is given as at most 0.6 fold. In addition, in data set [2], the “time over which solutions decrease in stability” value was 2 to 9 days. The association equilibrium constant in data set [3] is 11000 M⁻¹. For the same compound, the pKd (in general, the Kd on a negative log10 scale, so that one unit is a factor of ten) in data set [4] is 4.72; in [5], 4.76; in [6] it was 4.81. Further, the results for the “Specific Activity” value in data set [7] (setting [11]), in data set [8] (setting [11]) and in data set [10] (setting [11]) were 0.31 (± 0.04) mol/mol HSA, 0.30 (± 0.05) mol/mol HSA and 0.36 (± 0.08) mol/mol HSA, respectively. In addition, the values for the mL in data set [7] (setting [12]), in data set [8] (setting [12]) and in data set [10] (setting [12]) were 5.8 (± 0.6) × 10^−9 mol, 6.7 (± 1.8) × 10^−9 mol and 5.0 (± 0.9) × 10^−9 mol, respectively. Moreover, the “increase in binding affinity (Ka) with glycated HSA versus normal HSA” value in data set [9] is listed as 4.7–5.8 fold.
